Experimental data: US20170049100A1 (priority 2014, published 2017)
≈ marks a conversion by molar mass, not a printed value. Where two headings read alike, the source gives them in different places.

Key:
Phytophthora infestans [1] = experiment: microbe, parasite or virus in culture; assay type: cell-based; conditions: for EC50: Phytophthora infestans, 120 h
[2] = cited from earlier work
Phytophthora infestans [3] = assay type: in vivo; conditions: applied at the same time as Phytophthora infestans; 5 or 7 days; 0.5-1-3-6 L/ha
Phytophthora infestans [4] = assay type: in vivo; conditions: preventive; 3 and 6 I/ha; after incubating for 5 days

SMILES	Effectiveness of 2-ethyl-hexanol (% of control) (Phytophthora infestans [1]; 0.000512 μg 2-ethyl-hexanol/mL)	Effectiveness of 2-ethyl-hexanol (% of control) (Phytophthora infestans [1]; 0.00256 μg 2-ethyl-hexanol/mL)	Effectiveness of 2-ethyl-hexanol (% of control) (Phytophthora infestans [1]; 0.0128 μg 2-ethyl-hexanol/mL)	Effectiveness of 2-ethyl-hexanol (% of control) (Phytophthora infestans [1]; 0.064 μg 2-ethyl-hexanol/mL)	Effectiveness of 2-ethyl-hexanol (% of control) (Phytophthora infestans [1]; 0.32 μg 2-ethyl-hexanol/mL)	Effectiveness of 2-ethyl-hexanol (% of control) (Phytophthora infestans [1]; 1.6 μg 2-ethyl-hexanol/mL)	Effectiveness of 2-ethyl-hexanol (% of control) (Phytophthora infestans [1]; 8 μg 2-ethyl-hexanol/mL)	EC50 (Phytophthora infestans [1]) [ng/mL]	biodegradable ([2]; in 5 days) [%]	Effectiveness of octanol (% of control) (Phytophthora infestans [1]; 0.000512 μg octanol/mL)	Effectiveness of octanol (% of control) (Phytophthora infestans [1]; 0.00256 μg octanol/mL)	Effectiveness of octanol (% of control) (Phytophthora infestans [1]; 0.0128 μg octanol/mL)	Effectiveness of octanol (% of control) (Phytophthora infestans [1]; 0.064 μg octanol/mL)	Effectiveness of octanol (% of control) (Phytophthora infestans [1]; 0.32 μg octanol/mL)	Effectiveness of octanol (% of control) (Phytophthora infestans [1]; 1.6 μg octanol/mL)	Effectiveness of octanol (% of control) (Phytophthora infestans [1]; 8 μg octanol/mL)	biodegradable ([2]; in 30 days)	development of the pathogen on the surface of potato leaves (Phytophthora infestans [3])	intensity of the infection of the potato leaves caused by Phytophthora infestans (Phytophthora infestans [4])
CCCCC(CC)CO (centres unmarked) [2-ethyl-hexanol]	16.1 % of control	42.3 % of control	60.1 % of control	71.7 % of control	79.8 % of control	82.2 % of control	84.6 % of control	6.8 (≈ 0.0522 µM)	100										
CCCCCCCCO [octanol, octan-1-ol]								2.7 (≈ 0.0207 µM)		23.6 % of control	49.4 % of control	72.2 % of control	84.8 % of control	92.5 % of control	93.3 % of control	94.0 % of control	more than 70%	completely inhibits	greatly reduces
